Results: US10265286B2, “Sequelae of cardiopulmonary bypass-induced pulmonary injury” (Vanderbilt University, priority 2016, dated 2019)

Tested on: human vascular endothelial cells
Experiment: Nitric oxide production by cultured human vascular endothelial cells (FIG. 23)
Assay type: cell-based
Procedure: These agents were administered to cultured human vascular endothelial cells stimulated with acetylcholine. Measurement of nitric oxide was through a Seiver's system of nitrate/nitrites.

**Q.** Which NO production (applied directly to endothelial cell, very high concentrations (10 mM)) does the source give for `N=C(N)NCCC[C@H](N)C(=O)O` [arginine] here?
**A.** little sign of increased NO production

**Q.** And the “production of nitric oxide” value (cells stimulated with acetylcholine, nitrate/nitrites by Seiver's system)?
**A.** no effect on the production of nitric oxide
